Measured values: PubChem BioAssay AID2305 (GlaxoSmithKline (GSK), 2010)

What follows are compounds tested on P. falciparum 3D7 growth, pLDH absorbance (assay: blood-stage malaria parasite growth potency – strain 3D7, dose response (AID 2305)).

Row | Compound | IC50 [nM]
1 | COc1nc2c(CCN3CC[C@H](NCc4cc(C#N)c5c(c4)OCCO5)[C@H](O)C3)ccnc2cc1F | 780
2 | N#Cc1ccc(CNCCCCCCNCc2ccc(C#N)c3ccccc23)c2ccccc12 | 610
3 | O=C(NC1CCC(CN2CCC(c3c[nH]c4ccccc34)CC2)CC1)c1cc(-c2ccc(F)cc2F)ccc1O (centres undefined) | 360
4 | c1ccc2c(CNc3ccnc(NCc4cccc5ccccc45)n3)cccc2c1 | 560
5 | O=C(/C=C/c1ccc(Cl)c(Cl)c1)NCCCCCCN1CCN(C(=O)Nc2ccc(Cl)c(Cl)c2)CC1 | 930
6 | Cc1cc(-c2ccc(CNCc3ccc(F)cc3)cc2)ccc1S(=O)(=O)NCCN1CCCC1 | 720
7 | CC[C@H](N=C(Nc1ccc(C#N)cc1O)Nc1cccc(Cl)c1Cl)c1ccccc1 | 820
8 | NC(N)=Nc1nc(-c2cc(NC(=O)C(F)(F)F)cc([N+](=O)[O-])c2)cs1 | 780
9 | O=C(NCc1ccccc1)Nc1ccc(-c2ccc(-c3nc4ccc(C(F)(F)F)cc4[nH]3)cc2)cc1 | 670
10 | Nc1ncc(-c2ccc(F)cc2)cc1-c1nc2ccc(Cl)cc2[nH]1 | 750
11 | O=C(/C=C/c1ccc(Cl)c(Cl)c1)NCCCCCN1CCC(CCNC(=O)C2(c3ccc(Cl)cc3)CC2)CC1 | 920
12 | N#Cc1ccc(-c2ccc(C(=O)NCCCCN3CCC(c4ccncc4)CC3)cc2)cc1 | 810
13 | COc1ccc(C2CCN(CCCCNC(=O)c3ccc(NC(=O)c4ccc(Cl)cc4)cc3)CC2)cc1Cl | 840
14 | N#Cc1ccc(CCNc2nccc(-c3cccc(CN4CCNCC4)c3)n2)cc1 | 1250
15 | CC(=O)Nc1ccc(C(=O)Nc2cccc(-c3cccc(-c4nc5ccccc5[nH]4)c3)c2)cn1 | 200
16 | CCCCCc1cnc2nc(N)nc(N)c2c1 | 1230
17 | Cc1ccc(NC(=O)c2nc(N3CCN(c4ccncc4)CC3)ccc2Cl)cc1F | 810
18 | O=C(NC1CCCCN(Cc2ccc3c(c2)OCCO3)C1)c1cc(-c2ccccc2F)cs1 (centres undefined) | 1050
19 | Cc1cnn(-c2cccc(C(=O)NC3CCC(CCN4CCc5ccc(C#N)cc5CC4)CC3)c2)c1 (centres undefined) | 930
20 | O=C(Nc1ccccc1)N(Cc1cccc(-c2ccc(CNCCc3ccccc3)cc2)c1)C1CCN(Cc2ccccc2)CC1 | 350

Row | Compound | IC50 [nM]
21 | CCCCCCCN1CC[C@@H](CCCc2ccnc3ccc(OC)cc23)[C@@H](CCN)C1 | 750
22 | COC(=O)c1cccc(CNCc2cccc(-c3cccc(-c4nc5ccccc5[nH]4)c3)c2)c1 | 500
23 | O=C(Nc1ccc(OC2CCN(Cc3ccc(F)cc3)CC2)c(Cl)c1)c1cccs1 | 320
24 | CN1CCCN(Cc2ccc(-c3ccc(NC(=O)c4cccc(Cl)c4)cc3)cc2)CC1 | 860
25 | CCCn1c(Sc2ccc(C#N)c([N+](=O)[O-])c2)nnc1-c1ccc(Cl)cc1 | 540
26 | OCCCCCCNc1ccnc2[nH]c3ccc(I)cc3c12 | 1070
27 | O=C(NCC1CCN(Cc2cccc(C(F)(F)F)c2)C1)c1cc(-c2cccc(Cl)c2)cs1 (centres undefined) | 800
28 | O=C(Cc1cnc[nH]1)Nc1cccc(-c2ccc(-c3nc4ccccc4[nH]3)cc2)c1 | 760
29 | CC(=O)N1N=C(c2cccs2)Sc2c1nc(-c1ccc(Cl)cc1)n2C(C)=O | 740
30 | CCCCCCCCn1c2c(c(=N)c3c1CCC3)CCCC2 | 110
31 | COc1ccc(-c2nc(NC(=O)Cc3ccc4c(c3)OCCO4)sc2C)cc1 | 240
32 | CN1CCN(c2ccc(-c3cc(-c4cc(F)c(F)c(F)c4)cnc3N)cc2)CC1 | 1010
33 | COc1ccc(-c2ccc(CN(C)C3CCC(NC(=O)c4cc5ccccc5[nH]4)CC3)cc2)cn1 (centres undefined) | 870
34 | Cc1cc(O)cc2c(C3CCN(CC4CCC(NC(=O)/C=C/c5ccccc5Cl)CC4)CC3)c[nH]c12 (centres undefined) | 900
35 | CCOc1cc(C)ccc1N1CCN(CCCCNC(=O)c2ccc(NC(=O)c3ccc(Cl)cc3)cc2)CC1 | 640
36 | C=CCn1c(C)cc(C(=O)COc2ccc(S(=O)(=O)N3CCOCC3)cc2[N+](=O)[O-])c1C | 1110
37 | CC[C@H]1C[N+]2([O-])CC[C@@H]1C[C@H]2[C@H](O)c1cc(-c2ccccc2)nc2ccc(OC)cc12 | 840
38 | CN(C)Cc1ccc(-c2cccc(NC(=O)c3cccc(Cl)c3)c2)cc1 | 690
39 | Cc1ccc(C)c2sc(N(CCCn3ccnc3)C(=O)c3ccco3)nc12 | 870
